In ChEMBL document CHEMBL1140498, “Synthesis of novel anilinoquinolines as c-fms inhibitors” (Bioorg Med Chem Lett, 2007):

Tests used:
NSO = test: Growth inhibition of MCSF-independent mouse NSO cells
[1] = Growth inhibition of MCSF expressing mouse M-NSF60 cells
[2] = target: Macrophage colony-stimulating factor 1 receptor (Homo sapiens, UniProt P07333)
Rattus norvegicus = test: Antiinflammatory activity against carrageenan-induced paw edema in rat assessed as paw size at 40 mg/kg, iv relative to control; details: read-out: Inhibition
[3] = Plasma clearance in rat; type: ADME, organism-based
[4] = Plasma clearance in rat at 3 mg/kg, iv; type: ADME, organism-based; design: dose 3 mg/kg, route intravenous

Macrophage colony-stimulating factor 1 receptor, sequence (P07333 whole entry): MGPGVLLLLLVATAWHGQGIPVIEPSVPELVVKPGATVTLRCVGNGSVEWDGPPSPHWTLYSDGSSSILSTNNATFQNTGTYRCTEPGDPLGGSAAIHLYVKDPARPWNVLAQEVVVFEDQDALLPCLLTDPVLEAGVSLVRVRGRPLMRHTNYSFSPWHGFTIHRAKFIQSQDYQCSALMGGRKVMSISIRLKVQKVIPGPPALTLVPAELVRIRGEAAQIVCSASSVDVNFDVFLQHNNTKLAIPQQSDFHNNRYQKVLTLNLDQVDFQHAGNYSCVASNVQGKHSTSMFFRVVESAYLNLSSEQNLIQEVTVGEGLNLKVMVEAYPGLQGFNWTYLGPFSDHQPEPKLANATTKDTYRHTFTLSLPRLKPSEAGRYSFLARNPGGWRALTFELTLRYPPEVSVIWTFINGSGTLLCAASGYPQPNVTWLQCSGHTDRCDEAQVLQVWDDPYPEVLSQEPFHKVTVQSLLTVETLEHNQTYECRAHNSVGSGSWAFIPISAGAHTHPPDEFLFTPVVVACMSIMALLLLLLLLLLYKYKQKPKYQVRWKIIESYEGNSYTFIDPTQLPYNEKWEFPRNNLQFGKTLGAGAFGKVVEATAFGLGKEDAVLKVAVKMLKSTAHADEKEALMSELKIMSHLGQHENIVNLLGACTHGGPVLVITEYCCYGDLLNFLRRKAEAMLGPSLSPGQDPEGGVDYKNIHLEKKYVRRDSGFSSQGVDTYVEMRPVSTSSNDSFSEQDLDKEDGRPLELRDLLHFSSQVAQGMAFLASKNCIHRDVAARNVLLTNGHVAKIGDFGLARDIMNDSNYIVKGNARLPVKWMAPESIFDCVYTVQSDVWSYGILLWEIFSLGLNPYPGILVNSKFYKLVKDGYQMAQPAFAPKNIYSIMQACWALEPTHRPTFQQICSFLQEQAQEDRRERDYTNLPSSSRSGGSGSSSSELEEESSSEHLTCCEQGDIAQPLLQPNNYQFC

Row | IC50 [2] [nM] | clearance [3] [mL/min/kg] | Structure (SMILES) | IC50 (NSO) [nM] | IC50 [1] [nM] | inhibition in vivo at 40 mg/kg (Rattus norvegicus) [%] | clearance [4] [mL/min/kg]
1 | 40 | – | COc1ccc(Nc2c(C(N)=O)cnc3cc(-c4ccncc4)ccc23)cc1F | 32000 | 320 | – | –
2 | 160 | – | Cc1cc(Nc2c(C(N)=O)cnc3cc(-c4ccncc4)ccc23)ccc1Cl | 32000 | 2000 | – | –
3 | 40 | – | CN(C)c1ccc(-c2ccc3c(Nc4ccccc4)c(C(N)=O)cnc3c2)cc1 | 32000 | 6300 | – | –
4 | 32 | – | COc1ccc(Nc2c(C(N)=O)cnc3cc(-c4ccncc4)ccc23)cc1Cl | > 50000 | 200 | – | –
5 | 25 | – | CS(=O)(=O)Cc1cccc(-c2ccc3c(Nc4ccccc4)c(C(N)=O)cnc3c2)c1 | > 20000 | 5000 | – | –
6 | 50 | – | N#Cc1ccc(-c2ccc3c(Nc4ccccc4)c(C(N)=O)cnc3c2)cc1 | 32000 | 4000 | – | –
7 | – | 39 | NC(=O)c1cnc2cc(-c3ccncc3)ccc2c1Nc1ccccc1 | 12000 | 800 | 95 | –
8 | 63 | – | COc1ccc(Nc2c(C(N)=O)cnc3cc(-c4ccncc4)ccc23)cc1 | 16000 | 800 | – | –
9 | 320 | – | N#Cc1cccc(-c2ccc3c(Nc4ccccc4)c(C(N)=O)cnc3c2)c1 | 10000 | 8000 | – | –
10 | 130 | – | CSc1ccc(Nc2c(C(N)=O)cnc3cc(-c4ccncc4)ccc23)cc1 | > 50000 | 10000 | – | –
11 | – | – | CCOc1ccc(Nc2c(C(N)=O)cnc3cc(-c4ccncc4)ccc23)cc1F | > 16000 | 4000 | – | –
12 | – | – | CC(C)Oc1ccc(Nc2c(C(N)=O)cnc3cc(-c4ccncc4)ccc23)cc1F | 13000 | 8000 | – | –
13 | 63 | – | CN(C)c1ccc(Nc2c(C(N)=O)cnc3cc(-c4ccncc4)ccc23)cc1 | 10000 | 6300 | – | –
14 | 630 | – | CC(C)Oc1ccc(Nc2c(C(N)=O)cnc3cc(-c4ccncc4)ccc23)cc1 | > 50000 | 40000 | – | –
15 | – | – | NC(=O)c1cnc2cc(-c3ccccc3)ccc2c1Nc1ccccc1 | 32000 | 10000 | – | –
16 | 32 | – | NC(=O)c1cnc2cc(-c3ccncc3)ccc2c1Nc1ccc(F)c(F)c1 | > 32000 | 2500 | – | –
17 | 50 | – | Cc1cc(Nc2c(C(N)=O)cnc3cc(-c4ccncc4)ccc23)ccc1F | > 50000 | 1000 | – | –
18 | 50 | – | CS(=O)(=O)Cc1ccc(-c2ccc3c(Nc4ccccc4)c(C(N)=O)cnc3c2)cc1 | 8000 | 1600 | – | –
19 | 200 | – | CCS(=O)(=O)c1ccc(-c2ccc3c(Nc4ccccc4)c(C(N)=O)cnc3c2)cc1 | 8000 | 800 | – | –
20 | 16 | – | CS(=O)(=O)c1ccc(-c2ccc3c(Nc4ccccc4)c(C(N)=O)cnc3c2)cc1 | 20000 | 100 | – | –

Row | IC50 [2] [nM] | clearance [3] [mL/min/kg] | Structure (SMILES) | IC50 (NSO) [nM] | IC50 [1] [nM] | inhibition in vivo at 40 mg/kg (Rattus norvegicus) [%] | clearance [4] [mL/min/kg]
21 | 63 | – | Cc1ccc(Nc2c(C(N)=O)cnc3cc(-c4ccc(S(C)(=O)=O)cc4)ccc23)cc1F | > 20000 | 3200 | – | –
22 | 160 | – | CS(=O)(=O)c1ccc(-c2ccc3c(Nc4ccc(F)cc4)c(C(N)=O)cnc3c2)cc1 | 10000 | 400 | – | 4.5
23 | 100 | – | COc1ccc(Nc2c(C(N)=O)cnc3cc(-c4ccc(S(C)(=O)=O)cc4)ccc23)cc1F | 20000 | 1000 | – | –
24 | – | – | Cc1ccc(-c2ccc3c(Nc4ccccc4)c(C(N)=O)cnc3c2)cc1 | 25000 | 32000 | – | –
25 | 25 | – | COc1ccc(-c2ccc3c(Nc4ccccc4)c(C(N)=O)cnc3c2)cc1 | 8000 | 6300 | – | –
26 | 32 | – | NC(=O)c1cnc2cc(-c3ccc(F)cc3)ccc2c1Nc1ccccc1 | 25000 | 25000 | – | –
27 | 80 | – | NC(=O)c1cnc2cc(-c3ccc(S(N)(=O)=O)cc3)ccc2c1Nc1ccccc1 | 13000 | 3200 | – | –
28 | 100 | – | NC(=O)c1cnc2cc(-c3ccncc3)ccc2c1Nc1ccc(F)cc1 | > 40000 | 800 | – | –
29 | 80 | – | Cc1ccc(Nc2c(C(N)=O)cnc3cc(-c4ccncc4)ccc23)cc1C | > 50000 | 100 | – | –
30 | 80 | – | Cc1ccc(Nc2c(C(N)=O)cnc3cc(-c4ccncc4)ccc23)cc1F | > 20000 | 5000 | – | –
31 | 16 | – | NC(=O)c1cnc2cc(-c3ccc(Br)cc3)ccc2c1Nc1ccccc1 | 50000 | 50000 | – | –
32 | – | – | NC(=O)c1cnc2cc(-c3ccc(N)cc3)ccc2c1Nc1ccccc1 | 10000 | 1600 | – | –
33 | 200 | – | CS(=O)(=O)c1ccc(-c2ccc3c(Nc4ccc(F)c(F)c4)c(C(N)=O)cnc3c2)cc1 | > 20000 | 2000 | – | –
34 | – | – | COc1ccc(Nc2c(C(N)=O)cnc3cc(-c4ccc(S(C)(=O)=O)cc4)ccc23)cc1Cl | 13000 | 100 | – | –
35 | 40 | – | Cc1ccc(Nc2c(C(N)=O)cnc3cc(-c4ccncc4)ccc23)cc1Cl | > 32000 | 160 | – | –
36 | 32 | – | NC(=O)c1cnc2cc(-c3ccncc3)ccc2c1Nc1ccc(OC(F)(F)F)c(Cl)c1 | > 32000 | > 20000 | – | –
37 | 3200 | – | NC(=O)c1cnc2cc(-c3ccncc3)ccc2c1Nc1ccon1 | 40000 | > 50000 | – | –
38 | 130 | – | NC(=O)c1cnc2cc(-c3ccc(C(F)(F)F)cc3)ccc2c1Nc1ccccc1 | 20000 | 16000 | – | –
39 | 63 | – | CS(=O)(=O)Nc1ccc(-c2ccc3c(Nc4ccccc4)c(C(N)=O)cnc3c2)cc1 | 10000 | 2000 | – | –
40 | 80 | – | CC(=O)Nc1ccc(-c2ccc3c(Nc4ccccc4)c(C(N)=O)cnc3c2)cc1 | 4000 | 1300 | – | –

Row | Structure (SMILES) | IC50 [2] [nM] | clearance [3] [mL/min/kg] | IC50 (NSO) [nM] | IC50 [1] [nM] | inhibition in vivo at 40 mg/kg (Rattus norvegicus) [%] | clearance [4] [mL/min/kg]
41 | NC(=O)c1cnc2cc(-c3ccc(C(=O)C4CC4)cc3)ccc2c1Nc1ccccc1 | 100 | – | 10000 | 4000 | – | –
42 | NC(=O)c1cnc2cc(-c3ccc(C(=O)C4CCCC4)cc3)ccc2c1Nc1ccccc1 | 32 | – | > 20000 | > 20000 | – | –
43 | NC(=O)c1cnc2cc(-c3ccncc3)ccc2c1Nc1cccc2[nH]ncc12 | 160 | – | > 32000 | 1300 | – | –
44 | NC(=O)c1cnc2cc(-c3ccc(C(=O)N4CCCCC4)cc3)ccc2c1Nc1ccccc1 | 16 | – | 8000 | 400 | – | –
45 | NC(=O)c1cnc2cc(-c3ccc(C(=O)N4CCOCC4)cc3)ccc2c1Nc1ccccc1 | 80 | – | 8000 | 200 | – | –
46 | Cc1ccc(Nc2c(C(N)=O)cnc3cc(-c4ccc(S(C)(=O)=O)cc4)ccc23)cc1C | 8 | – | 10000 | 100 | – | 51
47 | NC(=O)c1cnc2cc(-c3ccncc3)ccc2c1Nc1n[nH]c2ccccc12 | 320 | – | > 50000 | 800 | – | –
